Assays:
human COX-2 = target: T1, human COX-2 (Homo sapiens, UniProt P35354); assay: COX Inhibitor Screening Assay, COX-2 activity; type: biochemical
T1 construct: purchased Cayman Chemical, Ann Arbor, Mich
T1 sequence (P35354 18-604): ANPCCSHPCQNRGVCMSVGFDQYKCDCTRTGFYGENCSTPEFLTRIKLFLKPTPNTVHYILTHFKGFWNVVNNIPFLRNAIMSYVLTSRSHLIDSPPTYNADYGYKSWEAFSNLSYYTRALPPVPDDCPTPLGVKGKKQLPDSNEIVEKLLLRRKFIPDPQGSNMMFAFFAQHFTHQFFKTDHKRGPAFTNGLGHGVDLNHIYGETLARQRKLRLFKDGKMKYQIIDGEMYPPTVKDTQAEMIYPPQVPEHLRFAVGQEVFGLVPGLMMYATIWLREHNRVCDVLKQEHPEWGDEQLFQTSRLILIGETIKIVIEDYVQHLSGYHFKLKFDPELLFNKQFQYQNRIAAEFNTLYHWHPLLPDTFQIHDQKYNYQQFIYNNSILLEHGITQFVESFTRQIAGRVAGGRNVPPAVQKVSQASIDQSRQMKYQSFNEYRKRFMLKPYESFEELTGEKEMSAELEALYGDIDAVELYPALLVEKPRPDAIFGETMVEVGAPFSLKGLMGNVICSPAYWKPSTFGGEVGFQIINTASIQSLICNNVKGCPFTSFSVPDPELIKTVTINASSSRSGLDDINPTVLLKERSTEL
Method: (§1) The ovine COX-1 and human CO-2 activities and the measurement of the prostaglandin products synthesized were performed using the COX Inhibitor Screening Assay (Cayman Chemical, Ann Arbor, Mich., which also contained the Prostaglandin Screening EIA Kit, used for prostaglandin quantification). The test compounds were dissolved at 50 times the highest final reaction concentration in DMSO or any other suitable solvent as stock solutions. These stock solutions were then diluted in the same solvent. Eight glass test tubes (13×100 mm) were placed in a 37° C. water bath. To each test tube was added 950 μL of reaction buffer (0.1 M Tris-HCl, pH 8.0, containing 5 mM EDTA, and 2 mM phenol), 10 μL of 100 µM heme solution, and 10 μL (5 units) of either ovine COX-1 or human COX-2 and the resulting mixture was incubated with the enzyme for 2 minutes. Twenty μL of the solvent was added to one tube (100% initial activity or solvent control) and 20 μL of each dilution of the test compound was added to one tube each. Each tube was vortexed immediately after the addition. The enzyme was incubated with the inhibitor for 3.5 minutes at 37° C. The enzymatic reaction was then initiated by the addition of 10 μL of freshly prepared 10 mM arachidonic acid (neutralized with KOH), vortexed and then incubated for 2 minutes at 37° C. […]

ovine COX-1 = target: T2, ovine COX-1 (Ovis aries, UniProt P05979); assay: COX Inhibitor Screening Assay, COX-1 activity; type: biochemical; settings: 100 μM test compound
T2 construct: purchased Cayman Chemical, Ann Arbor, Mich
T2 sequence (P05979 25-600): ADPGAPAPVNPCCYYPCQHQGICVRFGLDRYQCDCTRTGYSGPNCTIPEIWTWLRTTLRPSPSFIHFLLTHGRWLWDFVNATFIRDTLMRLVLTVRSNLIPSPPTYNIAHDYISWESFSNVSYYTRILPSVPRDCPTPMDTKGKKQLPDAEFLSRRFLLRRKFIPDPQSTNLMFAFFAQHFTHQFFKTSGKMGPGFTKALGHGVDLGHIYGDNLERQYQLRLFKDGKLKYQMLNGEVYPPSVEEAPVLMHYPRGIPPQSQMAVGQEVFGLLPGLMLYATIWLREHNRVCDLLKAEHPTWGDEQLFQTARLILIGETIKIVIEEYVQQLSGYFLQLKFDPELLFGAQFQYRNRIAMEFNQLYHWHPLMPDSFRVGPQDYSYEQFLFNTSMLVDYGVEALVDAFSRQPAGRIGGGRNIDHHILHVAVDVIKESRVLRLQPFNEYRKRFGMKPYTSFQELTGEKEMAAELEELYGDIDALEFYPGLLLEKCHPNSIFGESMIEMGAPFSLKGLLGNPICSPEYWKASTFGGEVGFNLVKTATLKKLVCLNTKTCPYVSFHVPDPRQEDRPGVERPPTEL
Method: as §1

## O=C1OCC(c2ccc(S(=O)(=O)CF)cc2)=C1c1ccccc1 [Example 1, 4-(4-((Fluoromethyl)sulfonyl)phenyl)-3-phenyl-5-hydrofuran-2-one]
Human COX-2; 10 μM test compound, human COX-2
  COX-2 Inhibition (% at 10 μM): 40%
Human COX-2; COX-2 versus COX-1, from Table 1
  COX-2 selectivity: has COX-2 selectivity
Ovine COX-1
  COX-1 Inhibition (% at 100 μM): 30%

From US20020183366A1, “Cyclooxygenase-2 inhibitors, compositions and methods of use” (priority 2001, published 2002)
